Reference: patent US9469645B2, “Compounds and compositions for the treatment of parasitic diseases” (Novartis AG, priority 2009, dated 2016)

Key:
[1] = test system: 3D7 P. falciparum strain; experiment: parasite proliferation assay in infected red blood cells (SYBR Green I); format: cell-based, Plasmodium falciparum; settings: Plasmodium falciparum, 3D7, Erythrocyte, 3D7 strain; read-out: EC50 3D7 strain
Outline: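 P. falciparum 3D7 grown in O+ human erythrocytes to 3–8% parasitemia and exposed to compounds. Proliferation read as the increase in parasite DNA. Detection used SYBR Green I in saponin/triton-X/EDTA lysis buffer, with overnight lysis at room temperature.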

[2] = test system: W2 strain; experiment: parasite proliferation assay in infected red blood cells (SYBR Green I), W2 strain; format: cell-based, Plasmodium falciparum; settings: Plasmodium falciparum, Erythrocyte
Source text: Compounds of the invention can be assayed to measure their capacity to inhibit proliferation of parasitemia in infected red blood cells. The proliferation is quantified by the addition of SYBR Green I (INVITROGEN)® dye which has a high affinity for double stranded DNA.

| Compound | EC50 [1] | EC50 [2] |
| --- | --- | --- |
| CC1(C)c2nc(-c3ccc(F)cc3)c(Nc3ccc(Cl)c(F)c3)n2CCN1C(=O)CN [Compound 419] | 0.03 µM | 0.024 µM |
| Cc1ccc(Nc2c(-c3ccc(F)cc3)nc3n2C(C)(C)C(=O)N(C)C3(C)C)cc1 [Compound 538] | 7.67 µM | 8.06 µM |
| Cc1ccc(Nc2c(-c3ccc(F)cc3)nc3n2CCN(C(=O)[C@@H](N)Cc2cscn2)C3)cc1 [Compound 486] | 0.03 µM | 0.016 µM |
| CC1(C)c2nc(-c3ccc(F)cc3)c(NC3CCCCC3)n2CCN1C(=O)CN [Compound 531] | 0.04 µM | 0.057 µM |
| CC1(C)NCCn2c1nc(-c1ccc(F)cc1)c2Nc1ccc(C#N)cc1 [Compound 426] | 0.18 µM | 0.271 µM |
| CN1CCN(c2ccc(Nc3c(-c4ccc(F)cc4)nc4n3CCN(C(=O)CN)C4(C)C)cc2)CC1 [Compound 571] | 6.2 µM | 7.48 µM |
| N[C@H](C(=O)N1CCn2c(nc(-c3ccc(F)cc3)c2Nc2ccc(Cl)c(F)c2)C1)c1ccc(F)cc1 [Compound 490] | 0.05 µM | 0.033 µM |
| N[C@H](C(=O)N1CCn2c(nc(-c3ccc(F)cc3)c2Nc2ccc(F)c(F)c2)C1)c1ccc(F)cc1 [Compound 436] | 0.03 µM | 0.052 µM |
| CN[C@@H](C(=O)N1CCn2c(nc(-c3ccc(F)cc3)c2Nc2ccc(C)cc2)C1)C(C)C [Compound 414] | 0.16 µM | 0.156 µM |
| CC1(C)Cn2c(nc(-c3ccc(F)cc3)c2Nc2ccc(C#N)c(F)c2)CN1 [Compound 581] | 0.65 µM | 0.668 µM |
| Cc1cc(Nc2c(-c3ccc(F)cc3)nc3n2CC(=O)NC3(C)C)nn1C [Compound 560] | 3.61 µM | 5.22 µM |
| CC[C@H](C)[C@H](N)C(=O)N1CCn2c(nc(-c3ccc(F)cc3)c2Nc2ccc(Cl)cc2)C1 [Compound 454] | 0.02 µM | 0.008 µM |
| C[C@H](N)C(=O)N1CCn2c(nc(-c3ccc(F)cc3)c2Nc2ccc(Cl)cc2)C1 [Compound 448] | 0.02 µM | 0.022 µM |
| CC1(C)NC(=O)Cn2c1nc(-c1ccc(F)cc1)c2Nc1cnc2ccccc2c1 [Compound 566] | 5.48 µM | 4.46 µM |
| Cc1ccc(Nc2c(-c3ccc(F)c(C)c3)nc3n2CCNC3)cc1 [Compound 494] | 2.82 µM | 2.14 µM |
| Cc1ccc(C[C@H](N)C(=O)N2CCn3c(nc(-c4ccc(F)cc4)c3Nc3ccc(F)cc3)C2)cc1 [Compound 474] | 0.13 µM | 0.088 µM |
| Cc1ccc(Nc2c(-c3ccc(F)c(C)c3)nc3n2CCN(C(=O)CN)C3)cc1 [Compound 517] | 0.05 µM | 0.051 µM |
| C[C@H]1c2nc(-c3ccc(F)cc3)c(Nc3ccc(Cl)c(F)c3)n2CCN1C(=O)CN [Compound 597] | 0.03 µM | 0.024 µM |
| CC(C)(N)C(=O)N1CCn2c(nc(-c3ccc(F)cc3)c2Nc2ccc(F)c(F)c2)C1(C)C [Compound 585] | 0.01 µM | 0.007 µM |
| C[C@H]1NC(=O)Cn2c1nc(-c1ccc(F)cc1)c2Nc1ccc(Cl)cc1 [Compound 565] | 0.07 µM | 0.105 µM |

| Compound | EC50 [1] | EC50 [2] |
| --- | --- | --- |
| Cc1ccc(Nc2c(-c3ccc(F)c(F)c3)nc3n2CCN(C(=O)[C@H](C)N)C3)cc1 [Compound 406] | 0.06 µM | 0.04 µM |
| Cc1ccc(Nc2c(-c3ccc(F)cc3)nc3n2CCN(C(=O)C(C)(C)N)C3(C)C)cc1 [Compound 529, 2-amino-1-(2-(4-fluorophenyl)-8,8-dimethyl-3-(p-tolylamino)-5,6-dihydroimidazo[1,2-a]pyrazin-7(8H)-yl)-2-methylpropan-1-one] | 0.002 µM | 0.004 µM |
| C[C@H](N)C(=O)N1CCn2c(nc(-c3ccc(F)cc3)c2Nc2ccc(F)c(F)c2)C1 [Compound 435] | 0.05 µM | 0.098 µM |
| CCN(c1cccc(F)c1)c1c(-c2ccc(F)cc2)nc2n1CCNC2 [Compound 446] | 0.31 µM | 0.243 µM |
| CC1(C)c2nc(-c3ccc(F)cc3)c(Nc3ccc(Cl)cc3)n2CCN1C(=O)CN [Compound 417, 2-amino-1-(3-(4-chlorophenylamino)-2-(4-fluorophenyl)-8,8-dimethyl-5,6-dihydroimidazo[1,2-a]pyrazin-7(8H)-yl)ethanone] | 0.01 µM | 0.006 µM |
| CC(C)C[C@H](N)C(=O)N1CCn2c(nc(-c3ccc(F)cc3)c2Nc2ccc(F)c(F)c2)C1 [Compound 439] | 0.03 µM | 0.04 µM |
| Cc1ccc(Nc2c(-c3ccc(F)cc3)nc3n2CCN(C(=O)CNC(C)(C)C)C3)cc1 [Compound 399] | 0.22 µM | 0.196 µM |
| CCN(c1ccc(Cl)c(F)c1)c1c(-c2ccc(F)cc2)nc2n1CCNC2 [Compound 413] | 0.18 µM | 0.131 µM |
| Cc1ccc(Nc2c(-c3ccc(F)cc3)nc3n2CCN(C(=O)[C@@H](N)Cc2ccc(F)cc2)C3)cc1 [Compound 483] | 0.05 µM | 0.025 µM |
| N[C@@H](Cc1ccc(F)c(F)c1)C(=O)N1CCn2c(nc(-c3ccc(F)cc3)c2Nc2ccc(F)c(F)c2)C1 [Compound 433] | 0.04 µM | 0.049 µM |
| C[C@@H]1NC(=O)Cn2c1nc(-c1ccc(F)cc1)c2Nc1ccc(Cl)cc1 [Compound 563] | 0.31 µM | 0.445 µM |
| Cc1cc(Nc2c(-c3ccc(F)cc3)nc3n2CC(=O)NC3(C)C)ccc1F [Compound 544] | 0.02 µM | 0.037 µM |
| N[C@@H](CC1CC1)C(=O)N1CCn2c(nc(-c3ccc(F)cc3)c2Nc2ccc(Cl)c(F)c2)C1 [Compound 488] | 0.02 µM | 0.013 µM |
| Cc1ccc(Nc2c(-c3ccc(F)cc3)nc3n2CCN(C(=O)[C@@](C)(N)Cc2ccc(F)cc2)C3)cc1 [Compound 502] | 1.39 µM | 1.37 µM |
| Cc1ccc(Nc2c(-c3ccc(F)cc3)nc3n2CCN(C(=O)[C@@H](N)CC2CC2)C3)cc1 [Compound 401] | 0.02 µM | 0.012 µM |
| CC(C)[C@H]1NC(=O)Cn2c1nc(-c1ccc(F)cc1)c2Nc1ccc(Cl)cc1 [Compound 549] | 1.7 µM | 3.26 µM |
| CC1(C)NC(=O)Cn2c1nc(-c1ccc(F)cc1)c2Nc1cc(F)c(F)c(F)c1 [Compound 543] | 0.17 µM | 0.305 µM |
| Cc1ccc(Nc2c(-c3ccc(F)cc3)nc3n2CCN(C(=O)C(C)Nc2ccc(C)cc2)C3)cc1 (centres unmarked) [Compound 407] | 0.71 µM | 0.523 µM |
| CC(C)(N)C(=O)N1CCn2c(nc(-c3ccc(F)cc3)c2Nc2ccc(F)c(Cl)c2)C1(C)C [Compound 586] | 0.01 µM | 0.007 µM |
| Cc1ccc(Nc2c(-c3ccc(F)cc3)nc3n2CCN(C(=O)CN)C3(C)C)cc1C#N [Compound 525] | 0.01 µM | 0.013 µM |

| Compound | EC50 [1] | EC50 [2] |
| --- | --- | --- |
| N[C@H](C(=O)N1CCn2c(nc(-c3ccc(F)cc3)c2Nc2ccc(Cl)cc2)C1)c1ccc(F)cc1 [Compound 457] | 0.02 µM | 0.011 µM |
| CN[C@@H](Cc1ccc(Cl)cc1)C(=O)N1CCn2c(nc(-c3ccc(F)cc3)c2Nc2ccc(C)cc2)C1 [Compound 400] | 0.18 µM | 0.105 µM |
| Cc1ccc(Nc2c(-c3ccc(F)cc3)nc3n2CCN(C(=O)[C@@H](N)C2CC2)C3)cc1 [Compound 404] | 0.02 µM | 0.012 µM |
| Cc1ccc(Nc2c(-c3ccc(F)c(C)c3)nc3n2CCN(C(=O)C(C)(C)N)C3)cc1 [Compound 518] | 4.98 µM | 2.89 µM |
| Cc1ccc(Nc2c(-c3ccc(F)cc3)nc3n2CC(C)(C)NC3)cc1 [Compound 578] | 0.25 µM | 0.339 µM |
| Cc1ccc(Nc2c(-c3ccc(F)cc3)nc3n2CCN(C(=O)[C@@](C)(N)CO)C3)cc1 [Compound 504] | 0.09 µM | 0.093 µM |
| Cc1ccc(Nc2c(-c3ccc(F)cc3)nc3n2CCNC3(C)C)cc1C(=O)O [Compound 526] | 1.12 µM | 0.974 µM |
| N[C@@H](Cc1ccc(F)c(F)c1)C(=O)N1CCn2c(nc(-c3ccc(F)cc3)c2Nc2ccc(Cl)cc2)C1 [Compound 460] | 0.04 µM | 0.033 µM |
| Cc1ccc(C[C@H](N)C(=O)N2CCn3c(nc(-c4ccc(F)cc4)c3Nc3ccc(F)c(F)c3)C2)cc1 [Compound 432] | 0.06 µM | 0.067 µM |
| CC(C)(N)C(=O)N1CCn2c(nc(-c3ccc(F)cc3)c2Nc2ccc(F)cc2)C1(C)C [Compound 583] | 0.01 µM | 0.009 µM |
| CN1Cc2nc(-c3ccc(F)cc3)c(Nc3ccc(Cl)cc3)n2CC1(C)C [Compound 556, N-(4-chlorophenyl)-2-(4-fluorophenyl)-6,6,7-trimethyl-5,6,7,8-tetrahydroimidazo[1,2-a]pyrazin-3-amine] | 0.06 µM | 0.075 µM |
| N[C@@H](Cc1ccc(F)cc1)C(=O)N1CCn2c(nc(-c3ccc(F)cc3)c2Nc2ccc(F)cc2)C1 [Compound 473] | 0.03 µM | 0.021 µM |
| CC(C)[C@H](N)C(=O)N1CCn2c(nc(-c3ccc(F)cc3)c2Nc2ccc(F)c(F)c2)C1 [Compound 434] | 0.02 µM | 0.019 µM |
| Cc1ccc(Nc2c(-c3ccc(F)cc3)nc3n2C(C)(C)CN(C)C3(C)C)cc1 [Compound 539] | 3.06 µM | 3.12 µM |
| CC1(C)c2nc(-c3ccc(F)cc3)c(Nc3cccc(F)c3)n2CCN1C(=O)C(F)(F)F [Compound 516] | 0.03 µM | 0.026 µM |
| COc1cc(Nc2c(-c3ccc(F)cc3)nc3n2CCN(C(=O)C(C)(C)N)C3)cc(F)c1F [Compound 427] | 0.21 µM | 0.436 µM |
| CC1(C)NC(=O)Cn2c1nc(-c1ccc(F)cc1)c2Nc1ccc(Cl)c(F)c1 [Compound 511] | 0.04 µM | 0.065 µM |
| CC1(C)NCCn2c1nc(-c1ccc(F)cc1)c2Nc1ccc(F)c(C(=O)O)c1 [Compound 523] | 13.1 µM | 11.6 µM |
